Legend:
Rat ESCs and iPSCs = experiment: Stem cell 3D culture in h9e hydrogel; type: cell-based
Text: Rat PSCs: Animal use was approved by the KSU Institutional Animal Care and Use Committee (protocol #3168). Rat ESCs were derived in-house from Dark Agouti rats and characterized following the methods described in previous studies. Low passage ESCs were thawed, expanded one passage in 2D on MEF feeders, and then used in these experiments. Rat iPSCs were generated from Fischer 344 rat embryonic fibroblasts using a mouse OKSM STEMCCA lentiviral reprogramming vector according to the manufacturer's protocol (Millipore, SCR513).
3D cell culture: We adapted the techniques used previously to encapsulate breast cancer cells in 3D described in previous studies. This was done by using the regular h9e peptide hydrogel (1% wt=6 mM) in an aqueous solution. The peptide hydrogel-medium was prepared by directly mixing the aqueous h9e peptide solution with concentrated 2i plus LIF medium at 1:1 ratios for a final peptide concentration of 3 mM (600 Pa). […] Specifically, medium was made at 1.2× concentration for the 1:5 dilution, […] for the […] and 2× for the 1:1 dilution in the three h9e hydrogel concentrations. After mixing, the cells were added and the mixture was immediately added to the dish slowly to avoid air bubbles. The plates were then incubated for 30 min at 37° C. to permit gelation. To feed, 1× concentration 2i plus LIF medium was added slowly to the top of the hydrogel. To pass, the media was pipetted up and down by adding 1-2 ml of PBS more forcefully to shear the gel, and the liquefied contents were then added to a tube and diluted to a concentration that was below that which permitted gelation. The colonies were pelleted by low speed centrifugation (100×g for 5 min at room temperature), washed with calcium and magnesium free PBS, and then trypsinized to single cells by addition of trypsin EDTA for 5 min. Enzymatic reaction was terminated by dilution with PBS and 2 washing steps. The PSCs were suspended in a small volume of medium, added to the 1× hydrogel-medium solution, and re-plated at the desired concentration. Alkaline phosphatase staining, Immunofluorescence staining: Karyotyping, Embryoid body formation, Gene expression analysis were performed to determine the differentiation properties.

[1] = Comparison of material properties of 3D cell culture hydrogels; type: physicochemical
[2] = Oxygen transmission rate (OTR) of hydrogel; type: physicochemical
Experimental: Hydrogel: 1% h9e peptide was prepared in sodium bicarbonate solution, and 1% BSA was prepared in PBS solution as trigger solution. The h9e peptide solution and BSA solution was mixed at 1:1 volume ratio, and incubated at 37 C for 30 min to prepare hydrogel with 0.5% h9e peptide concentration and 0.5% BSA with a gel strength of about 450 Pa.
Oxygen transmission rate (OTR): The OTR of hydrogels is another important property for in vitro tissue and organ regeneration process. Standard PGmatrix hydrogels was used in this experiment. OTR is the steady state rate at which oxygen gas permeates through a material at specified conditions of temperature and relative humidity. Values are expressed in cc/m2/24 hr in metric units determined by MOCON, Inc. (Minneapolis, […].) for OTR measurement using OX-TRAN instrument according to the standard method. Both challenge gas (oxygen) and sweeper gas (nitrogen) was held at relatively humidity of 100% to avoid gel drying, and temperature will be kept at ambient. 3.75 ml hydrogel was used and spread into thin film to cover the 5 cm^2-area. Experiments were duplicated twice.

[3] = Instantaneous gelation time sweep of peptide sequences 1, 3 and 4; type: physicochemical; details: triggered with 100 mM CaCl2 solution (FIG. 12, 13)
Experimental: Similar to the methods used in U.S. 2013/0018004. Hydrogels were prepared with peptide 1, 3, and 4 alone, or mixture of peptide sequence 1 and 4 at 1:1 ratio. Hydrogels were triggered by calcium ions and BSA alone or co-trigger (calcium ions+BSA).

[4] = h9e-MSC medium hydrogel rheology; type: physicochemical
Experimental: Two different types of stem cell mediums were selected for this test. One is a low glucose DMEM medium with 2% (v/v) Fetal Bovine Serum (FBS) for Mesenchymal Stromal Cell (MSC medium). The other one is a N2B27 supplemented serum-free 2i medium with 0.5% (v/v) Bovine Serum Albumin (BSA) for rat Embryonic Stem Cell (ESC, 2i medium). The hydrogel formation process was monitored under a time sweep rheological test for 1 hour. The special shear-thinning and self-healing property of h9e peptide hydrogel was also tested. […] In addition, the stability of hydrogel as well as the peptide solution before the hydrogel formation was also tested.
The h9e peptide was synthesized according to the method mentioned above. Lyophilized peptide was added to 100 mM sodium bicarbonate and completely dissolved by magnetic stirring for 3 hours with a final peptide concentration of 10 mM. For hydrogelation, peptide solution was added into MSC medium or 2i medium and the mixture was hand-shaken for about 10 seconds or gently pipette mixed 3 times. The final peptide concentrations were 1, 2, and 3 mM.
The storage and loss moduli (G′ and G″, respectively) of h9e hydrogels were determined on a C-VOR 150 rheometer system (Malvern instruments, Malvern, Worcestershire WR141XZ, United Kingdom) with a 20-mm diameter parallel plate geometry and 500 μm gap size at 37° C. The methods for hydrogel formation test and shear-thinning and self-healing test were the same as the methods of cancer cell medium mentioned above. After 24 hours of hydrogel formation, 2 mM peptide hydrogel was diluted 20 fold by adding cell culture medium and thorough mixing by pipette. The diluted solution was transferred to rheometer system and tested under 1 Hz frequency and 1% shear strain at 4° C. for 1 hour.

[5] = Rheology of h9e/BSA hydrogel formation (storage modulus G′); type: physicochemical; details: for G′ after 2 hours of testing: 3 mM h9e
Experimental: For albumin triggered hydrogel formation, 10 mM (1.74 wt %) peptide was first dissolved in 100 mM NaHCO3 solution. BSA and HSA were dissolved in water with 5 wt % concentration. The peptide solution and albumin solution were then mixed at different ratios for final mixtures of 1, 2, 3 mM h9e peptide with albumin from 0.1 to 5 wt %.
The storage (G′) and loss (G″) moduli of h9e hydrogels with different peptide/albumin ratios were measured on a rheometer system C-VOR 150 (Malvern instruments, Malvern, Worcestershire WR141XZ, United Kingdom) with a 20 mm diameter parallel plate test system. All rheological tests were carried out at 37° C. […]

## H-FLIVIGSIIGPGGDGPGGD-NH2 [h9e, FLIVIGSIIGPGGDGPGGD]
Rat ESCs and iPSCs; 3 mM h9e hydrogel, 3D culture
  serial passages maintained in the undifferentiated state (Oct4, Nanog, Sox2, SSEA-1 staining): at least 25 serial passages
Rat ESCs and iPSCs; 3 mM hydrogel
  proliferation of encapsulated rat pluripotent stem cells: proliferated well
Rat ESCs and iPSCs; 3D culture in hydrogel
  alkaline phosphatase staining after more than 25 passages: not affected
Rat ESCs and iPSCs; rat ESC or rat iPSC cultures
  spontaneous differentiation on the colony edges: never observed
[1]
  Porosity: 50-200 nm
[2]; 0.5% h9e, 0.5% BSA hydrogel, 100% relative humidity, ambient temperature
  OTR: 3,984 cc/m^2-day
[2]; h9e hydrogel at 0.5% peptide concentration
  OT rate: about 3,984 cc/m^2 per day
[3]
  final gel strength after 30 minute gelation time sweep: 240 Pa
[4]; 1 mM h9e-MSC hydrogel
  stable G′: 70 Pa
[4]; 2 mM h9e-MSC hydrogel
  G′ under 500% shear strain: lower than 0.2 Pa
  stable G′: 350 Pa
[4]; 2 mM h9e-MSC hydrogel, 1 min after shear ceased
  gel strength recovered: greater than 90%
[4]; 2 mM h9e-MSC hydrogel, within a few minutes of 1% shear strain recovery test
  mechanical strength recovered: 100%
[4]; 3 mM h9e-MSC hydrogel
  stable G′: 800 Pa
[4]; diluted from 2 mM to 0.1 mM, 1 hour test
  G′ and G″ after 20-fold dilution: lower than 4 Pa
[5]; 1 mM peptide with 1 wt % BSA, 2 hour test
  hydrogel formation: performed like a Newtonian liquid
[5]; 3 mM h9e peptide solution mixed with 5% BSA, 37° C.
  stable G′: around 200 Pa
[5]; 3 mM h9e solution without BSA, 30 min test
  behaviour of peptide solution alone: performed as Newtonian liquid
[5]; 0.1 wt % BSA
  G′ after 2 hours of testing: about 110 Pa
[5]; 0.5 wt % BSA
  G′ after 2 hours of testing: over 900 Pa
[5]; 1 wt % BSA
  G′ after 2 hours of testing: 680 Pa
[5]; 5 wt % BSA
  G′ after 2 hours of testing: 200 Pa
[5]; 0.5% h9e peptide and 0.5% BSA, incubated at 37° C. for 30 min
  gel strength: about 450 Pa

— patent publication US11135163B2, “Peptide hydrogel properties and its applications” (Kansas State University Research Foundation, priority 2014, dated 2021)
